Structures can show the parent of a compound that is named as a salt.

For orientation: inhibition means the drop in the measured response relative to a control, in per cent. A high value points to a strong effect.

Assay [1] concerns HIV. The following applies: CD4+ cells, Fields, et al., Nature, Vol. 333, 19 May 1988, cited from earlier work.
For assay [2], the system named is Moloney murine leukemia virus (MoLV). Put plainly: in vitro XC plaque assay (SC-1 cells infected with MoLV, XC cell overlay, plaques counted). The format is cell-based. The following applies: compound added 2 hours before virus; for Mean No. of Foci: control 84 foci. The procedure: This assay was performed according to the method of Rowe et al. (Virology, 1970,42, 1136-39) as previously described by L. Hsu, et al. (J. Virological Methods, 1980, 1, 167-77) and T. L. Bowlin and M. R. Proffitt (J. Interferon Res., 1983, 3(1), 19-31). Mouse SC-1 cells (fibroblast) (10⁵) were seeded into each well of 6-well cluster plates (Costar #3506) in 4 ml Minimum Essential Medium (MEM) with 10% Fetal Calf Serum (FCS). Following an 18 hour incubation period (37°C), Moloney murine leukemia virus (MoLV) was applied at a predetermined titer to give optimal (i.e. countable) numbers of virus plaques. Compounds were added 2 hours prior to addition of the virus. Three days later the culture medium was removed, the SC-1 cell monolayers were exposed to UV irradiation (1800 ergs), and rat XC cells (10⁶) were seeded into each well in 4 ml MEM. Following an additional 3 day incubation (37°C), these cells were fixed with ethyl alcohol (95%) and stained with 0.3% crystal violet. Plaques were then counted under low magnification.

The test system of assay [3] is RF strain of HIV-1. Put plainly: p24 antigen expression from HIV infected T-lymphocytes (C8166 T cell line). The format is cell-based. Particulars: C8166 cells; for p24 Antigen: 3 h pretreatment, culture fluid after 3 days. Here is the method:
Cells (C8166 T cell line) were pretreated with test compounds at appropriate concentrations for 3 hours prior to virus (RF strain of HIV-1) absorption. Low multiplicity of infection was used and virus absorption period was 1 hour at room temperature. the cells were washed X1 in PBS and resuspended in fresh medium containing the appropriate concentrations of test compound. Cells incubated at 37°C and after 3 days culture fluid was assayed for p24 antigen as a measure of viral replication. Because these compounds were insoluble in water as their free base, they had to be taken up in DMSO and therefore a series of DMSO virus controls were needed for comparison.

Regarding `CC1CNCCN1S(=O)(=O)c1cccc2cnccc12` (stereo not shown) [1,5-isoquinolinesulphonyl-2-methylpiperazine dihydrochloride], the “HIV cell surface binding” value in assay [1] is “does not interfere with HIV cell surface binding”. The viral infectivity result in assay [1] (accumulation of virus particles at the cell surface) is “inhibition of viral infectivity”.
Regarding `CCCc1[nH]c(=O)oc1-c1ccnc2ccccc12` [Test Compound, 4-propyl-5-(4-quinolinyl)-2(3H)-oxazolone], the “Mean No. of Foci” value in assay [2] (0.10 µg/ml) was found to be 84; in assay [2] (1 µg/ml) it was 10. Besides, the inhibition at 0.1 µg/mL in assay [2] (Murine leukemia virus, SC-1, 0.10 µg/ml) was determined as 0%. In addition, the inhibition at 1 µg/mL in assay [2] (Murine leukemia virus, SC-1, 1 µg/ml) is 88.1%; in assay [3] (Human immunodeficiency virus 1, 72 h, 1 µg/ml, vehicle DMSO 0.01%, 3 days) it was 28%. Also, the “p24 Antigen” value in assay [3] (1 µg/ml, vehicle DMSO 0.01%, DMSO control 1027 pg/ml) came out at 745 pg/mL; in assay [3] (10 µg/ml, vehicle DMSO 0.1%, DMSO control 2408 pg/ml), 710 pg/mL. Further, at 10 µg/mL the inhibition in assay [3] (Human immunodeficiency virus 1, 72 h, 10 µg/ml, vehicle DMSO 0.1%, 3 days) was 71%.

The values above are taken from patent EP0428105A2, “Use of quinolyl- and isoquinolyloxazole-2-ones for the production of a medicament for the prevention of glycoprotein enveloped virus infectivity” (MERRELL DOW PHARMACEUTICALS INC., priority 1989, dated 1991).
